# Results as given in patent publication US7906709B2, “Methods for breeding glyphosate resistant plants and compositions thereof” (priority 2006, dated 2011).
# How the values were obtained:
# [1] = tested on: F1 progeny of R and S lines of California rigid ryegrass; experiment: Glyphosate sensitivity of F1 progeny (RxS, SxR); type: in vivo, Lolium rigidum
# Source text: Cross-pollination is arranged in the greenhouse between one plant each of the R and S lines which have similar maturity. To prevent pollen contamination from un-wanted ryegrass, the plants are covered with transparent plastic. The likelihood of selfing is less than 3% as discussed in, for example, Thorogood, Perennial Ryegrass (Lolium perenne L.) in M. D. Casler and R. R. Duncan, eds. Turfgrass Biology, Genetics, and Breeding, John Wiley & Sons, Inc., pp. 75-105 (2003). About 500 seeds from both R and S plants are harvested at maturity and kept separately. F1 plants are grown and maintained similarly as previously described. The F1 progeny are evaluated for glyphosate sensitivity when the plants are 5 to 8 cm tall. Glyphosate is sprayed at 0.125×, 0.5×, 0.25×, 1×, 2×, 4×, 6×, and 8× and the spray solutions prepared and delivered as described previously. The response of 10 plants in each of two experiments to glyphosate is recorded 3 and 4 WAT.
# [2] = tested on: backcrossed turfgrass samples; experiment: Glyphosate resistance phenotype of backcrossed turfgrass samples; type: in vivo
# Source text: In some embodiments, the germplasm can have more than one glyphosate resistant allele. At least one of the glyphosate resistant alleles is the single nucleotide polymorphism (“SNP”) for the EPSPS gene at nt301 of SEQ. ID. NO. 1. By sequencing of the EPSPS from sensitive and resistant ryegrass biotypes the SNP was identified. A change from cytosine to thymine at this position changes the amino acid from proline to serine. The SNP at nt301 of SEQ. ID. NO. 1 can be used as a marker to identify plants that carry the allele of the resistant form of EPSPS. As shown in Table 1 and highlighted in the Examples below, a second allele can contribute to the glyphosate resistance.
# Having both the first allele (the SNP) and the second allele in a plant such as, for example, a turf grass, can increase resistance to glyphosate. In some embodiments, the second allele may be attributed to glyphosate oxidoreductase (“GOX”) enzyme encoded by a GOX gene. Only one of the alleles may be needed to produce a glyphosate resistant plant such as for example, a turfgrass. In some embodiments, the second allele can be identified as the Gly-Rest 2 gene. The Gly-Rest 2 gene encodes a glyphosate resistant protein that can be identified as the Gly-Resist Protein (“GRP”) which is different from the glyphosate resistant EPSPS. To identify which plants have only the GRP protein, the following is an example of an analysis that can be useful. The plants that have been crossed with a known glyphosate resistant parent are grown. A herbicidally effective amount of glyphosate is applied to the plants. The plants that survive the application are selected and a part of the plant is then used to determine if a biomarker for glyphosate resistant EPSPS is present. An example of such an analysis is discussed in the examples below. If the biomarker is present, then the plant has at least glyphosate resistant EPSPS and may have GRP. […] A biomarker analysis for GRP can be designed and designing such an analysis is well within the knowledge of those skilled in the art.
# [3] = tested on: R line of rigid ryegrass; experiment: Dose response study of plant injury, R line; type: in vivo, Lolium rigidum
# Procedure: A dose response study is conducted on the R and S lines of rigid ryegrass. The rates of glyphosate applied varied from 0.125×, 0.25×, 0.5×, 1×, 2×, 4×, 6×, 8×, 10×, to 12×. The sprayed solutions and application procedures are similar to those described previously. Plants are evaluated for visual injury at 4 WAT. Data (4 WAT) from two experiments with 8 replications of each treatment are analyzed by non-linear regression and fitted to a log-logistic model:
# [formula] where y is predictive of plant injury (% of control), X50=dose required to obtain 50% injury and b is the slope at X50.
# [4] = tested on: F1 hybrid of perennial ryegrass and glyphosate resistant rigid ryegrass; experiment: Glyphosate sensitivity of F1 hybrid population; type: in vivo, Lolium perenne x Lolium rigidum; conditions: 50 plants, 3 weeks after treatment
# Procedure: The R biotype of California rigid ryegrass, which survived 8× glyphosate and perennial ryegrass, which died from 0.25× of glyphosate, are grown individually in 950-ml pots with professional planting mix media as discussed above. Plants are maintained in greenhouse with supplemental light, watered daily, and fertilized weekly with NPK water soluble fertilizer (20-20-20). At the mature vegetative stage, perennial ryegrass plants are vernalized in the growth chamber with the temperature 4 ±1 C, 8 h day and 16 h night. After 4 weeks vernalization, the plants are removed and maintained in greenhouse until flowering.
# Seed heads of perennial ryegrass are designated to be pollinated by California rigid ryegrass also vice-verse because both of the species are allogamus plants. Both are known to be self-incompatible. After the emergence of seed heads and before the pollen opened, one plant from each species is isolated in one room of greenhouse. To provide conditions for cross-pollination, perennial ryegrass and rigid ryegrass plants are placed next to each other. During the pollination period, plants are maintained regularly as mentioned previously until the seed reached the maturity. The successful hybridization is indicated with the full development of mature seeds which had brown color. Seeds are harvested from both perennial and rigid ryegrass. Seeds from perennial ryegrass hybrids are used for further evaluation.
# Seeds of the F1 hybrid harvested from perennial ryegrass are grown and maintained as individual plants in the greenhouse as described previously. At the tillering stage, 50 plants for each of glyphosate rates (0.25, 0.5, 1.0, 1.5, 2.0, 4.0, and 8×, where x=1.12 kg ha^−1) are evaluated for sensitivity or resistance. Glyphosate is delivered in 187 L ha^−1 spray solutions with 172.5 kPa pressure using a flat fan nozzle. The dead or survivors in each treatment are counted 3 weeks after treatment and the plants with the highest level of resistance are further maintained and intercrossed to generate F2.
# [5] = Glyphosate 0.25 kg ha^-1 as headed
# [6] = Glyphosate 0.50 kg ha^-1 as headed
# [7] = Glyphosate 1 kg ha^-1 as headed
# [8] = Glyphosate 4 kg ha^-1 as headed
# [9] = Glyphosate 8 kg ha^-1 as headed
structure (smiles),measurement,setting,value
"O=C(O)CNCP(=O)(O)O [glyphosate, N-(phosphonomethyl) glycine]",injury,"[1]; 2× glyphosate, 4 WAT",20-30%
same,recovery from injury,"[1]; 2× glyphosate, after 5 weeks",full recovery
same,highest glyphosate rate survived,[1]; F1 progeny (RxS) and (SxR),up to 2 ×
same,effect on F1 plants,[1]; glyphosate at 4× and higher rates,killed
same,Phenotype (Dead),"[2]; sample 1 S control, SNP No",1X
same,Phenotype (Dead),"[2]; sample 2 R control, SNP Yes",8X
same,Phenotype (Dead),"[2]; sample 3, SNP No",2X
same,Phenotype (Dead),"[2]; sample 4, SNP Yes",2X
same,Phenotype (Dead),"[2]; sample 5, SNP Yes",8X
same,Phenotype (Dead),"[2]; sample 6, SNP No",1X
same,Phenotype (Dead),"[2]; sample 7, SNP No",4X
same,Phenotype (Dead),"[2]; sample 8, SNP No",1X
same,Phenotype (Dead),"[2]; sample 9, SNP Yes",4X
same,Phenotype (Dead),"[2]; sample 10, SNP No",4X
same,Phenotype (Dead),"[2]; sample 11, SNP Yes",4X
same,Phenotype (Dead),"[2]; sample 12, SNP Yes",4X
same,Phenotype (Dead),"[2]; sample 13, SNP No",1X
same,Phenotype (Dead),"[2]; sample 14, SNP No",2X
same,Phenotype (Dead),"[2]; sample 15, SNP Yes",4X
same,Phenotype (Dead),"[2]; sample 16, SNP Yes",4X
same,Phenotype (Dead),"[2]; sample 17, SNP Yes",6X
same,Phenotype (Dead),"[2]; sample 18, SNP Yes",2X
same,Phenotype (Dead),"[2]; sample 19, SNP No",4X
same,Phenotype (Dead),"[2]; sample 20, SNP No",4X
same,Phenotype (Dead),"[2]; sample 21, SNP No",4X
same,Phenotype (Dead),"[2]; sample 22 S control, SNP No",1X
same,Phenotype (Dead),"[2]; sample 23 R control, SNP Yes",8X
same,survival,"[3]; R biotype, 8× glyphosate",survived
same,ratio of glyphosate rates between the R and S lines for 50% injury,"[3]; R line versus S line, 4 WAT",> 100 fold
same,glyphosate rate for 50% injury,"[3]; R line, visual injury 4 WAT, 1× = 1.12 kg ai ha^-1",11 ×
same,Severely injured and dead,[4]; [5],0%
same,Survivors,[4]; [5],100%
same,Severely injured and dead,[4]; [6],6%
same,Survivors,[4]; [6],94%
same,Severely injured and dead,[4]; [7],10%
same,Survivors,[4]; [7],90%
same,Survivors,[4]; Glyphosate 2 kg ha^-1 as headed (2× in text),90%
same,Survivors,"[4]; Glyphosate 2 kg ha^-1 as headed (2× in text), listed as Glyphosate",90**) Percent
same,Severely injured and dead,[4]; Glyphosate 2 kg ha^-1 as headed,10%
same,Severely injured and dead,[4]; [8],100%
same,Survivors,[4]; [8],0%
same,Severely injured and dead,[4]; [9],100%
same,Survivors,[4]; [9],0%
